Data on one molecule can be found in patent US20090041839A1, “PHARMACEUTICAL COMPOSITIONS FOR THE TREATMENT OF PAIN” (priority 2007, published 2009).

Molecules are shown by their SMILES. Where two headings read alike, the source gives them in different places.

The nature of this data set: Multiple escalating dose pharmacokinetic study of T-62 soft gelatin capsules (Example 12). The class given is in vivo. The following applies: both sexes, human, plasma, healthy adults; for Tmax: median; for AUC(0-inf) / Cmax / AUC: po, arithmetic mean (SD); for AUC: τ = 12 hours, read-out: AUC0-τ. As for the experimental part: A single-center, randomized, double-blind, parallel-group, placebo-controlled study of the safety, tolerability, and pharmacokinetics of escalating multiple doses of a T-62 composition in soft gelatin capsules (oral dosage form 4) in healthy adult male and female subjects was carried out.
Three cohorts of 12 subjects were enrolled for the study (19-38 years of age). Subjects in each cohort were randomly assigned in a 3:1 allocation to receive multiple doses of either T-62 (n=9) or placebo (n=3). Subjects in each cohort received study medication for a total of 6 days. Subjects in the first cohort received multiple doses of 100 mg T-62 or placebo. Subsequent cohorts of 12 new subjects each received multiple doses of placebo or a higher dose level of T-62 (i.e., 2×100 mg for the second cohort and 4×100 mg for the third cohort).
Each subject in each dosing cohort completed Screening, Baseline, Treatment, and Follow-Up Phases. The Screening Phase was conducted on an outpatient basis within 30 days, but no less than 3 days, prior to the start of the Baseline Phase. The Baseline Phase consisted of clinical research unit (CRU) admission and final qualification assessments. The Treatment Phase comprised of dosing, post-treatment safety assessments, and blood collection.
On the morning of Day 1, subjects received a single dose of study drug; no additional study drug were administered on Day 1. Twice-daily dosing (one morning dose and one evening dose) commenced on Day 2 and continue through Day 5. Subjects received a final dose of study drug on the morning of Day 6. Once subjects in each cohort had completed dosing, an additional 48 hours of blood sampling was conducted following the final dose to characterize the pharmacokinetics of T-62 at steady state. Subjects were discharged at the end of the 48-hour blood sampling (Day 8). The Follow-Up Phase occurred 2 days (but no more than 4 days) after discharge from the CRU.
For all cohorts, on Day 2 through Day 5, subjects were not allowed to eat any food beginning 1 hour prior to the morning and evening doses of study drug and until 2 hours after study drug administration. On Day 1 and Day 6, subjects fasted for a minimum of 9 hours pre-dose to 4 hours post-dose.
Blood samples for determining plasma concentrations of T-62 and pharmacokinetic parameters were obtained immediately prior to dosing on Day 1 and at regular intervals post-dosing over 12 hours in each treatment cohort. On Days 2-5, blood samples for pharmacokinetic analysis were collected each day prior to the morning and evening doses of study drug. Once subjects in each cohort had completed dosing on Day 6, an additional 48 hours of plasma sampling were conducted following the final dose of study drug to characterize the pharmacokinetics of T-62 at steady state.

The mark [1] stands for this setting: 200 mg, Day 1, single dose 2 × 100 mg (oral dosage form 4), n = 9.
The mark [2] stands for this setting: 400 mg, Day 1, single dose 4 × 100 mg (oral dosage form 4), n = 9.
Setting [3] is: 100 mg, Day 1, single dose 100 mg (oral dosage form 4), n = 8.
The mark [4] stands for this setting: 100 mg, Steady state (Day 6), 100 mg BID (oral dosage form 4), n = 8.
The mark [5] stands for this setting: 200 mg, Steady state (Day 6), 2 × 100 mg BID (oral dosage form 4), n = 9.
[6] abbreviates: 400 mg, Steady state (Day 6), 4 × 100 mg BID (oral dosage form 4), n = 9.

Usually Tmax stands for the time from dosing to the highest level. By AUC(0-inf) is commonly meant the area under the concentration-time curve extrapolated to infinity. Low readings indicate low exposure, high ones high exposure. In general, Cmax refers to the highest concentration seen after dosing. In the case of `Nc1sc2c(c1C(=O)c1ccc(Cl)cc1)CCCC2` [T-62, (2-amino-4,5,6,7-tetrahydrobenzo[b]thiophen-3-yl)(4-chlorophenyl)-methanone], the Tmax worked out at 1 h under setting [1]; 2 h under setting [2]; 1 h (Day 1, single dose 100 mg (oral dosage form 4), n = 8). The AUC(0-inf) under setting [3] is 0.0969 µg·h/mL; the AUC(0-inf) under setting [4] worked out at 0.407 µg·h/mL; the AUC(0-inf) under setting [1] amounted to 0.254 µg·h/mL; the AUC(0-inf) under setting [5] was 0.995 µg·h/mL; the AUC(0-inf) under setting [2] came out at 0.496 µg·h/mL; the AUC(0-inf) under setting [6] worked out at 2.21 µg·h/mL. Further, the Cmax by setting is: under setting [3], 0.0288 µg/mL; under setting [4], 0.0559 µg/mL; under setting [1], 0.0607 µg/mL; under setting [5], 0.107 µg/mL; under setting [2], 0.0714 µg/mL; under setting [6], 0.179 µg/mL. In addition, the AUC is, setting by setting: under setting [3], 0.0895 µg·h/mL; under setting [4], 0.197 µg·h/mL; under setting [1], 0.211 µg·h/mL; under setting [5], 0.45 µg·h/mL; under setting [2], 0.399 µg·h/mL; under setting [6], 0.958 µg·h/mL.
